Measurements published in patent publication EP0178438A1, “Novel compounds” (BEECHAM GROUP PLC, priority 1984, dated 1986).

Tested on: acid secretion
Assay: perfused rat stomach preparation (anti-secretory response, pH of perfusate)
Type: in vivo, male Wistar rats
Details: bolus intravenous injection, maximal reduction in hydrogen-ion concentration as percentage of control, carbachol or histamine stimulated, urethane anaesthetized rat; for inhibition in vivo at 2 µmol/kg: Dose 2 μmol/kg; for inhibition in vivo at 2.5 µmol/kg: Dose 2.5 μmol/kg; for inhibition in vivo at 1 µmol/kg: Dose 1 μmol/kg
Method: The modified (1) perfused stomach preparation (2) ofthe urethane (25% solution) anaesthetized rat, maintained at 37 °C, allows the continuous measurement of pH during basal and stimulated acid secretion.
The lumen of the stomach of male Wistar rats (approximately 200 g bodyweight) was perfused, via a cannula designed to reduce the dead space of the stomach, with 5% glucose solution (37°C) at the rate of 3 ml/min. The perusate was forced over the surface of the secretory mucose only, the antrum being excluded. The effluent then passed over a microflow type glass pH electrode via a collecting funnel situated in the non-glandular forestomach.
The secretagogue carbachol or histamine was administered as a constant intravenous infusion to produce a stady rate of acid secretion. Test compounds were administered in solution as bolus intravenous injections and any effect on th pH of the perfusate noted. The perfusate Ph was recorded on a potentiometric recorder and anti-secretory responses were measure in terms of the maximal reduction in hydrogen-ion concentration expressed as a percentage of the 'control' concentrations.

Cc1c(N(C)c2ccccc2)ccnc1C[S+]([O-])c1nc2ccccc2[nH]1 (centres unmarked) [Example 24b]
inhibition in vivo at 2 µmol/kg: 100%

Cc1c(C[S+]([O-])c2nc3ccccc3[nH]2)ncnc1N1CCOCC1 (centres unmarked) [Example 26b, 2-[(5-Methyl-4-morpholino-pyrimidin-6-yl)methylsulphinyl]benzimidazole]
inhibition in vivo at 2.5 µmol/kg: 84%

Cc1cnc(C[S+]([O-])c2nc3ccccc3[nH]2)c(C)c1N1CCCCC1 (centres unmarked) [Example 6b, 2-[(3,5-dimethyl-4-(piperid-1-yl)pyrid-2-yl)methylsulphinyl]benzimidazole]
inhibition in vivo at 2 µmol/kg: 50%

Cc1c(N2CCOCC2)ccnc1C[S+]([O-])c1nc2ccccc2[nH]1 (centres unmarked) [Example 21b, 2-[(3-Methyl-4-morpholino-pyrid-2-yl)methylsulphinyl]-benzimidazole]
inhibition in vivo at 2 µmol/kg: 87%

Cc1c(C[S+]([O-])c2nc3ccccc3[nH]2)ncnc1N(C)C (centres unmarked) [Example 27b, 2-[(5-Methyl-4-dimethylamino-pyrimidin-6-yl)methylsulphinyl]benzimidazole]
inhibition in vivo at 2.5 µmol/kg: 92%

Cc1cnc(C[S+]([O-])c2nc3ccc(Cl)cc3[nH]2)c(C)c1N1CCOCC1 (centres unmarked) [Example 14b, 5-Chloro-2-[(3,5-dimethyl-4-morpholinopyrid-2-yl)-methylsulphinyl]benzimidazole]
inhibition in vivo at 1 µmol/kg: 60%

Cc1c(C[S+]([O-])c2nc3ccccc3[nH]2)ncnc1N1CCCCC1 (centres unmarked) [Example 25b, 2-[(5-Methyl-4-(1-piperidinyl)-pyrimidin-6-yl)methylsulphinyl]benzimidazole]
inhibition in vivo at 2 µmol/kg: 84%

Cc1cnc(C[S+]([O-])c2nc3ccccc3[nH]2)c(C)c1N1CCOCC1 (centres unmarked) [Example 8b, 2-[(3,5-dimethyl-4-morpholino-pyrid-2-yl)methylsulphinyl]benzimidazole]
inhibition in vivo at 0.5 µmol/kg (Dose 0.5 μmol/kg): 72%

Cc1cnc(C[S+]([O-])c2nc3ccccc3[nH]2)c(C)c1N(C)C (centres unmarked) [Example 2, 2-[ (4-Dimethylamino-3,5-dimethylpyrid-2-1)methylsulphinyl] benzimidazole]
inhibition in vivo at 1 µmol/kg: 37%

Cc1cnc(C[S+]([O-])c2nc3ccccc3[nH]2)c(C)c1Nc1ccccc1 (centres unmarked) [Example 23b, 2-[(3,5-Dimethyl-4-N-anilino-pyrid-2-yl)methylsulphinyl]benzimidazole]
inhibition in vivo at 5 µmol/kg (Dose 5 μmol/kg): 86%

Cc1cnc(C[S+]([O-])c2nc3cc(Cl)ccc3[nH]2)c(C)c1N(C)C (centres unmarked) [Example 11b, 5-Chloro-2-[(4-dimethylamino-3,5-dimethypyrid-2-yl)-methylsulphinyl]benzimidazole]
inhibition in vivo at 2 µmol/kg: 37%
